The record followed here is patent US20250213593A1, “Use of Derivatives based on Sarsasapogenin Structure and Pharmaceutical Compositions thereof” (BEIJING PHYTOVENT PHARMACEUTICAL TECHNOLOGY CO., LTD., priority 2022, published 2025).

Read-outs that look alike come from different tables or passages of the source.

Assay [1] deals with primary cultured neurons in rats (cerebral cortex). The assay can be described thus: Oxygen glucose deprivation (OGD) injury of primary cultured rat neurons. Format: cell-based. An excerpt:
Experimental and analytical method: rats, 15 days pregnant, were ordered, brains of fetal rats (E15-16) were dissected, and neurons in the cerebral cortex were subjected to primary culture in a neuronal medium for 14 days (DIV 14) using 48-well plates, followed by an OGD experiment. During the OGD experiment, a neuronal culture solution was replaced by a glucose- and oxygen-free culture solution (95% N2/5% CO2 balance), and the neurons were subjected to OGD treatment in an OGD chamber. Then, the oxygen- and glucose-free culture medium was replaced by a normal neuronal culture solution, which was then cultured in a 95% Air/5% CO2 incubator for 24 h for neuronal activity analysis. By staining with Hoechst 33342 and Propidium iodide, a high-content fluorescence microscope was used for photographing, wherein 20 random non-overlapping visual fields were photographed per duplicate well, and the total number of neurons and the number of dead neurons were counted by software (Thermo Scientific™, HCS Studio Cell Analysis Software). […]

Assay [2] relates to ICR mice. The assay can be described thus: Sleep of mice at subthreshold hypnotic dosage of sodium pentobarbital. The following applies: Diazepam 1 mg/kg; vs blank control. The format is in vivo, mouse. The procedure:
After adaptive feeding of mice, 50 qualified animals were selected according to their body weights and divided into 5 groups by Excel complete randomization: a blank control group, a positive control group (Diazepam), and high-, medium- and low-dosage groups of test product, with 10 animals in each group. Animals in each group should be administrated with drug solutions and vehicles. After 1 h of administration, the animals in each group were intraperitoneally injected with a maximum subthreshold dosage of sodium pentobarbital (firstly, a pre-experiment was conducted to determine a maximum subthreshold hypnotic dosage of sodium pentobarbital).

Assay [3] concerns human SHSY5Y neural tumor cells. The assay can be described thus: H2O2-induced oxidative damage of SHSY5Y cells (MTT). Format: cell-based. The following applies: 1 μM, pre-protected 24 h, 250 μM H2O2 24 h.
Assay [4] concerns hippocampal neurons. The assay can be described thus: L-cysteine-induced neuronal excitotoxicity. Format: cell-based, SD rats. The following applies: compound 1 μM, 24 h before inducer. The procedure: Experimental and analytical method: before the experiment, a 24-well cell culture plate was pretreated with Poly-D-lysine and placed in a cell incubator at 37° C. and 5% CO2 overnight. SD rats, 18 days pregnant, were ordered, brains of fetal rats (E18-19) were dissected, and hippocampal neurons in the brains were subjected to primary culture in a neuronal medium using a 24-well plate, and then cultured by a serum-free medium. The hippocampal neurons were cultured in a cell incubator at 37° C., 5% CO2 for 19 days (DIV19), then added with a compound to be tested (a final concentration of 1 μM) and a positive control AP5 [(2R)-amino-5-phosphonopentanoic acid(phosphonatopentanoate)] (a final concentration of 100 μM), cultured for 24 h, and then added with L-Cystine (400 μM) and NaHCO3 (10 mM). After 18 h, Hoechst3342 (2.5 μg/ml) was added for cell staining. The cells were placed in the incubator and cultured for 15 min, and photographed using the high-content fluorescence microscope, wherein 6 random non-overlapping fields were photographed for each duplicate well, and the total number of neurons and the number of dead neurons were counted with software Image J. The obtained data was used to determine whether there was a difference between a drug treatment group and a control group.
Compound treatment: 32 small molecule compounds in Embodiment 1 to Embodiment 19A were diluted with DMSO to a 1 mM mother solution; and 1 μL of mother solution was added to 1 ml of culture solution per well in a 24-well plate to a final concentration of 1 μM, wherein a positive control compound was […] of AP5 (100 mM mother solution), and a negative control was 1 μl of DMSO.

Assay [5] relates to U2932 (human diffuse large B-cell lymphoma cells). The assay can be described thus: Cell proliferation assay, U2932. Format: cell-based. The following applies: U2932, 72 h. As for the experimental part: (§1) • Experimental and analytical method: cells were inoculated into a 96-well cell culture plate with a lid at a maximum concentration of 10 μM for a test compound, and diluted in three folds to a series of test concentrations, and cells were incubated at 37° C., 5% CO2 for 72 h. The concentration of DMSO was 0.5%, 100 μl of medium was taken from each well. 100 μl of reagent (Celltitute Glo Assay Kit) was added to each well, and a flat plate was shaken on a plate shaker (protected from light) for 2 min. A culture plate was incubated (protected from light) at room temperature for 30 min. Chemiluminescence values were recorded by a multi-plate plate reader, and the experimental results were as follows:
(§2) U937 (histiocytic lymphoma cells), OCI-LY3 (human diffuse large B-cell lymphoma cells), U2932 (human diffuse large B-cell lymphoma cells), and HT cells (human mixed lymphoma cells) were analyzed in the table for experimental analysis of cell proliferation.

Assay [6] relates to HT cells (human mixed lymphoma cells). The assay can be described thus: Cell proliferation assay, HT. Format: cell-based. The procedure:
as §1, §2

Assay [7] has as its system OCI-LY3 (human diffuse large B-cell lymphoma cells). The assay can be described thus: Cell proliferation assay, OCI-LY3. Format: cell-based. The following applies: for IC50: Homo sapiens, OCI-Ly3, 72 h. As for the experimental part: as §1, §2
The subject of assay [8] is U937 (histiocytic lymphoma cells). The assay can be described thus: Cell proliferation assay, U937. The format is cell-based. The following applies: Homo sapiens, U-937, 72 h. The procedure:
as §1, §2

In assay [9] the test system is male SD rats, TBI model. The assay can be described thus: Acute traumatic brain injury (TBI) rat model. The following applies: 80 mpk once a day, 7 days; vs solvent control (P<0.05). The format is in vivo. The procedure:
• Experimental and analytical method: male SD rats were used in this experiment to establish a TBI rat model, which was randomly divided into: a solvent control group (8 rats), a test product Embodiment 13B (80 mpk, 10 rats), and a test product Embodiment 26 (80 mpk, 9 rats). After TBI surgery, drugs were administered by gavage once a day for 7 consecutive days.

The test system of assay [10] is Lepr gene mutant (DB) mice. The assay can be described thus: Blood glucose of DB mice. Format: in vivo, mouse. The following applies: 80 mpk by gavage once a day, from 8 to 20 weeks of age. An excerpt:
• Experimental and analytical method: leptin receptor gene (OB-R) was also known as diabetes gene (db), leptin receptor (Lepr) is closely related to obesity, hypertension, diabetes, lipid metabolism disorders, etc. The courses of these diseases are greatly influenced by the genetic background. Topical insulin can not control the increase in blood glucose and gluconeogenesis levels in the liver. Gene editing technologies and embryo injection technologies were used to construct Lepr gene mutant mice. […] The blood glucose in each mouse of this strain began to rise sharply at 8 weeks of age, reaching 30 mmol/L, while the blood glucose of the normal background was only about 6 mmol/L. We started drug delivery from 8 weeks of age. Test small molecules were Embodiment 28, Embodiment 29 and Embodiment 30, all of which were at a dosage of 80 mpk, and delivered by gavage once a day.

The test system of assay [11] is Raji-Luc hematologic tumor cells in NOD-Scid immunodeficient mice. The assay can be described thus: NOD-Scid mice inoculated with hematologic tumor cells Raji-Luc. The following applies: 100 mpk by gavage once a day.

Consider `O=C1NCCc2c(OCCCCN3CCCCC3)cccc21` [DPQ], for which the “protective effect on neuronal damages” value in [1] was “significant protective effect”. For the same compound, the “proportion of dead cells” value in assay [1] (without OGD 10.32%, DMSO negative control 52.31%) came out at 22.22%.

In the case of `CN1C(=O)CN=C(c2ccccc2)c2cc(Cl)ccc21` [Diazepam, reference compound], in assay [2], the sleep latency entry is recorded as “significantly shortened” and the sleep time entry is on record as “significantly prolonged”.

Take `C[C@H]1CC[C@@]2(OC1)O[C@H]1C[C@H]3[C@@H]4CC[C@@H]5CC(NC(=O)C6CCN(C)CC6)CC[C@]5(C)[C@H]4CC[C@]3(C)[C@H]1[C@@H]2C` (some centres unmarked) [Embodiment 2]: the “protection of H2O2-induced neural tumor cell damages” value (from here on “protection”) in assay [3] is given as “significantly protected”. In addition, in assay [4], the “protective effects on L-Cystine (400 μM)-induced neuronal excitotoxicity” value is reported as “protective effects”.

Regarding `C[C@H]1CC[C@@]2(OC1)O[C@H]1C[C@@H]3[C@H](CC[C@H]4[C@H]3CC[C@@H]3CC(NC(=O)CC(=O)NCC5CCN(C)CC5)CC[C@@]34C)[C@H]1[C@@H]2C` (some centres unmarked) [Embodiment 7], the “protection” value in assay [3] is “significantly protected”.

The IC50 is the concentration at which inhibition is half-maximal. As to `C[C@H]1CC[C@@]2(OC1)O[C@H]1C[C@H]3[C@@H]4CC[C@@H]5C[C@@H](NC(=O)CC(=O)N6CCN(CCN(C)C)CC6)CC[C@]5(C)C4CC[C@]3(C)[C@H]1[C@@H]2C` (some centres unmarked) [Embodiment 13A], the half-inhibitory concentration (IC50) in assay [5] was found to be 430 nM; in assay [6] (Homo sapiens, HT, 72 h), 1510 nM; in [7], 1780 nM. Moreover, in assay [6] (among compounds of Table 13), the “inhibitory effect on the proliferation of HT cells (comparison in words)” value was “best inhibitory effect”. In addition, the “inhibitory effect on the proliferation of OCI-LY3 cell line (comparison in words)” value in assay [7] (among compounds of Table 13) is “best inhibitory effect”.

Take `C[C@H]1CC[C@@]2(OC1)O[C@H]1C[C@H]3[C@@H]4CC[C@@H]5CC(NC(=O)CCN6CCN(CCN(C)C)CC6)CC[C@]5(C)[C@H]4CC[C@]3(C)[C@H]1[C@@H]2C` (some centres unmarked) [Embodiment 13]: the “protection” value in assay [3] is listed as “significantly protected”. Moreover, the “protective effects on L-Cystine (400 μM)-induced neuronal excitotoxicity” value in [4] is reported as “protective effects”. The IC50 in assay [8] (low sugar, read-out: U937 (IC50, uM) Low sugar) stood at 2.28 µM; in [8] (normal sugar, read-out: U937 (IC50, uM) Normal sugar), 4.04 µM; in assay [5], 1190 nM; in [7] it was 4400 nM.

For the compound `C[C@H]1CC[C@@]2(OC1)OC1CC3C4CC[C@@H]5C[C@@H](NC(=O)CC(=O)NCCO)CC[C@]5(C)C4CC[C@]3(C)C1[C@@H]2C` (some centres unmarked) [Embodiment 14A], in [3], the “protection” value is reported as “significantly protected”.

Turning to `C[C@H]1CC[C@@]2(OC1)O[C@H]1C[C@H]3[C@@H]4CC[C@@H]5CC(NC(=O)CC(=O)N6CCN(C7CCN(C)CC7)CC6)CC[C@]5(C)C4CC[C@]3(C)[C@H]1[C@@H]2C` (some centres unmarked) [Embodiment 26], in assay [9], the “early brain apoptosis rates” value is given as “significantly lower” and the total apoptosis rates result is on record as “significantly lower”.

As for `COC(=O)N1CCN(C(=O)CC(=O)NC2CC[C@]3(C)C4CC[C@]5(C)[C@@H]6[C@H](C[C@H]5[C@@H]4CC[C@@H]3C2)O[C@]2(CC[C@H](C)CO2)[C@H]6C)CC1` (some centres unmarked) [Embodiment 28], the blood glucose entry in [10] was “certain blood glucose-reducing effects”.

On to `CCN1CCC(N2CCN(C(=O)CC(=O)NC3CC[C@]4(C)C5CC[C@]6(C)[C@@H]7[C@H](C[C@H]6[C@@H]5CC[C@@H]4C3)O[C@]3(CC[C@H](C)CO3)[C@H]7C)CC2)CC1` (some centres unmarked) [Embodiment 29], for which, in assay [10], the blood glucose entry was “certain blood glucose-reducing effects”.

With `C[C@H]1CC[C@@]2(OC1)O[C@H]1C[C@H]3[C@@H]4CC[C@@H]5CC(NC(=O)CC(=O)N6CCC(N7CCN(CC#N)CC7)CC6)CC[C@]5(C)C4CC[C@]3(C)[C@H]1[C@@H]2C` (some centres unmarked) [Embodiment 30], the blood glucose entry in assay [10] was “best blood glucose-reducing effect and could reach the level of normal background mice”.

Regarding `C[C@H]1CC[C@@]2(OC1)O[C@H]1C[C@H]3[C@@H]4CC[C@@H]5CC(NC(=O)CC(=O)N6CCCN(CCN(C)C)CC6)CC[C@]5(C)C4CC[C@]3(C)[C@H]1[C@@H]2C` (some centres unmarked) [Embodiment 39], the “tumor killing effect (in-vivo fluorescence intensity)” value in [11] is on record as “relatively good tumor killing effects”.

`C[C@H]1CC[C@@]2(OC1)O[C@H]1C[C@H]3[C@@H]4CC[C@@H]5CC(NC(=O)CC(=O)N6CCN(CCn7ccnc7)CC6)CC[C@]5(C)C4CC[C@]3(C)[C@H]1[C@@H]2C` (some centres unmarked) [Embodiment 40]: in assay [11], the “tumor killing effect (in-vivo fluorescence intensity)” value was “relatively good tumor killing effects”.
